Test results reported in US9198420B2, “Rodenticidal norbormide analogues” (priority 2012, dated 2015).
Like-named read-outs stand apart in the source and are kept apart here.

Key:
[1] = tested on: Sprague Dawley rats; experiment: In vivo lethality, oral gavage; design: species or system rat (Sprague Dawley); conditions: rat, n = 2
Experimental: Sprague Dawley rats (150-200 g) were used to appraise the rodenticidal activity of the compounds put forward for in vivo evaluation. Briefly, prior to administration the compounds were dissolved in 0.2 M hydrochloric acid (5% DMSO overall), to the desired dose, and without delay either injected intravenously, via the tail, or orally gavaged. All treated animals were housed in a quiet room and monitored every minute (i.v) or every 15 min (oral) to verify early signs of toxicity.

[2] = tested on: rat caudal artery; experiment: Rat caudal artery ring contractile force (vasoconstrictory activity); design: species or system rat (male Wistar)
Experimental: Male Wistar rats (150-250 g) were obtained from Charles River Italia (Milano, Italy) and killed by decapitation. Ventral caudal artery was isolated, placed in Tyrode solution at room temperature and cleaned of extraneous fatty and connective tissue under a dissection microscope. All vessels were cut into rings 2 mm long, mounted on a custom-built plexiglass support by means of two intraluminal tungsten wires and placed in 20 mL double-jacketed organ baths filled with Tyrode solution of the following composition (mM): NaCl 125, KCl 5, CaCl2 2.7, MgSO4 1, KH2PO4 1.2, NaHCO3 25 and glucose 11, maintained at 37° C., pH 7.35, bubbled with 95% O2 and […]. The endothelium was removed by gently rubbing the lumen of the rings with a very thin rough-surfaced tungsten wire (caudal artery). The mechanical activity of the rings was detected by means of an isometric force transducer (Ugo Basile, Comerio, Italy) coupled to a pen recorder (Ugo Basile, Comerio, Italy). Rings were passively stretched to impose a resting tension (2 g) and were allowed to equilibrate for 60 min. After equilibration, each ring was repeatedly simulated with both KCl (90 mM) and phenylephrine (10 μM) until reproducible responses were obtained. To verify the absence of the endothelium, rings contracted with 1 μM phenylephrine were exposed to […] carbamylcholine. […] Each compound was tested for the vasoconstrictor activity at a concentration of 50 μM, which has been previously reported to be the one evoking the maximal response to norbormide. The contractile responses to the compounds were expressed as percent of the 90 mM KCl response.

[3] = Table 1, read-out: Vasoconstriction: maximum contractile effect as a % of 90 mM KCl contraction
[4] = Table 3, read-out: Vasoconstriction: maximum contractile effect as a % of 90 mM KCl contraction

SMILES | In vivo lethality (oral) ([1]; 40 mg/Kg) | Vasoconstriction: maximum contractile effect as a % of 90 mM KCl contraction ([2]; Table 4, pre-cleavage, n = 3) | Vasoconstriction: maximum contractile effect as a % of 90 mM KCl contraction ([2]; Table 1, compound at 50 μM) | other results
O=C(OCN1C(=O)C2C3C=C(C(O)(c4ccccc4)c4ccccn4)C(C3=C(c3ccccc3)c3ccccn3)C2C1=O)C(c1ccccc1)c1ccccc1 (stereo not drawn) [Compound 17, N-Diphenylacetyloxymethyl-5-(α-hydroxy-α-2-pyridylbenzyl)-7-(α-2-pyridylbenzylidene)-5-norbornene-2,3-dicarboximide] | no^h | 0% | – | Emax [2, 3]: 0%
O=C(CCc1ccccc1)OCCN1C(=O)C2C3C=C(C(O)(c4ccccc4)c4ccccn4)C(C3=C(c3ccccc3)c3ccccn3)C2C1=O (stereo not drawn) [Compound 119, N-2′-Dihydrocinnamoyloxyethyl-5-(α-hydroxy-α-2-pyridylbenzyl)-7-(α-2-pyridylbenzylidene)-5-norbornene-2,3-dicarboximide] | – | – | ≧132% | –
COc1cccc(C=CC(=O)OCCN2C(=O)C3C4C=C(C(O)(c5ccccc5)c5ccccn5)C(C4=C(c4ccccc4)c4ccccn4)C3C2=O)c1 (stereo not drawn) [Compound 125, 5-(α-1-hydroxy-α-2-pyridylbenzyl)-N-[2′-(3″-methoxycinnamoyloxy)ethyl]-7-(α-2-pyridylbenzylidene)-5-norbornene-2,3-dicarboximide] | – | – | 80% | –
Cc1ccc(C=CC(=O)OCCN2C(=O)C3C4C=C(C(O)(c5ccccc5)c5ccccn5)C(C4=C(c4ccccc4)c4ccccn4)C3C2=O)cc1 (stereo not shown) [Compound 128] | – | – | 42% | –
CN(C)c1ccc(C=CC(=O)OCCN2C(=O)C3C4C=C(C(O)(c5ccccc5)c5ccccn5)C(C4=C(c4ccccc4)c4ccccn4)C3C2=O)cc1 (stereo not shown) [Compound 131] | – | – | 30% | –
COc1ccc(C=CC(=O)OCCN2C(=O)C3C4C=C(C(O)(c5ccccc5)c5ccccn5)C(C4=C(c4ccccc4)c4ccccn4)C3C2=O)cc1OC (stereo not shown) [Compound 132] | – | – | 120% | –
O=C(/C=C/C=C/c1ccccc1)OCCN1C(=O)C2C3C=C(C(O)(c4ccccc4)c4ccccn4)C(C3=C(c3ccccc3)c3ccccn3)C2C1=O (stereo not drawn) [Compound 187, 5-(α-Hydroxy-α-2-pyridylbenzyl)-N-[2′-(5″-phenyl-2″E,4″E-pentadienoyloxy)ethyl]-7-(α-2-pyridylbenzylidene)-5-norbornene-2,3-dicarboximide] | – | – | 0% | –
O=C(C=Cc1ccc2ccccc2c1)OCCN1C(=O)C2C3C=C(C(O)(c4ccccc4)c4ccccn4)C(C3=C(c3ccccc3)c3ccccn3)C2C1=O (stereo not drawn) [Compound 188, 5-(α-Hydroxy-α-2-pyridylbenzyl)-N-[2′-(2″-naphthylacryloyloxy)ethyl]-7-(α-2-pyridylbenzylidene)-5-norbornene-2,3-dicarboximide] | – | – | 0% | –
O=C(OCOCCN1C(=O)C2C3C=C(C(O)(c4ccccc4)c4ccccn4)C(C3=C(c3ccccc3)c3ccccn3)C2C1=O)C(c1ccccc1)c1ccccc1 (stereo not drawn) [Compound 201, N-[2′-(Diphenylacetyloxymethyloxy)ethyl]-5-(α-hydroxy-α-2-pyridylbenzyl)-7-(α-2-pyridylbenzylidene)-5-norbornene-2,3-dicarboximide] | – | – | – | Emax [2, 3]: ≥ 132%
O=C(CCC(=O)Oc1ccccc1)OCCN1C(=O)C2C3C=C(C(O)(c4ccccc4)c4ccccn4)C(C3=C(c3ccccc3)c3ccccn3)C2C1=O (stereo not drawn) [Compound 204, 5-(α-Hydroxy-α-2-pyridylbenzyl)-N-2′-(monophenyl)succinoyloxyethyl-7-(α-2-pyridylbenzylidene)-5-norbornene-2,3-dicarboximide] | – | – | 0% | –
CS(=O)(=O)c1ccc(C=CC(=O)OCCN2C(=O)C3C4C=C(C(O)(c5ccccc5)c5ccccn5)C(C4=C(c4ccccc4)c4ccccn4)C3C2=O)cc1 (stereo not drawn) [Compound 329, 5-(α-Hydroxy-α-2-pyridylbenzyl)-N-[2′-(4″-methylsulfonylcinnamoyloxy)ethyl]-7-(α-2-pyridylbenzylidene)-5-norbornene-2,3-dicarboximide] | yes^h | 88% | – | Emax [2, 3]: 88%
CC(=O)Nc1ccc(C=CC(=O)OCCN2C(=O)C3C4C=C(C(O)(c5ccccc5)c5ccccn5)C(C4=C(c4ccccc4)c4ccccn4)C3C2=O)cc1 (stereo not drawn) [Compound 337, N-[2′-(4″-Acetamidocinnamoyloxy)ethyl]-5-(α-hydroxy-α-2-pyridylbenzyl)-7-(α-2-pyridylbenzylidene)-5-norbornene-2,3-dicarboximide] | yes^h | 97% | – | Emax [2, 3]: 97%
COC(=O)C(N)CC(=O)OCCN1C(=O)C2C3C=C(C(O)(c4ccccc4)c4ccccn4)C(C3=C(c3ccccc3)c3ccccn3)C2C1=O.O=C(O)C(F)(F)F (stereo not drawn) [Compound 343, 5-(α-Hydroxy-α-2-pyridylbenzyl)-N-[2′-(α-methylaspartoyloxy)ethyl]-7-(α-2-pyridylbenzylidene)-5-norbornene-2,3-dicarboximide trifluoroacetate] | yes^h,i | 149% | 140% | In vivo lethality (oral) ([1]; 20 mg/Kg): yes^h,i
COc1ccc(C=CC(=O)NCCN2C(=O)C3C4C=C(C(O)(c5ccccc5)c5ccccn5)C(C4=C(c4ccccc4)c4ccccn4)C3C2=O)cc1 (stereo not drawn) [Compound 361, 5-(α-Hydroxy-α-2-pyridylbenzyl)-N-[2′-(4″-methoxycinnamamido)ethyl]-7-(α-2-pyridylbenzylidene)-5-norbornene-2,3-dicarboximide] | yes^h,i | 21% | – | In vivo lethality (oral) ([1]; 20 mg/Kg): yes^h,i; Emax ([2]; Table 2, read-out: Vasoconstriction: maximum contractile effect as a % of 90 mM KCl contraction): 21%
CCCCCCCC(=O)NCCN1C(=O)C2C3C=C(C(O)(c4ccccc4)c4ccccn4)C(C3=C(c3ccccc3)c3ccccn3)C2C1=O (stereo not drawn) [Compound 364, 5-(α-Hydroxy-α-2-pyridylbenzyl)-N-2′-octanamidoethyl-7-(α-2-pyridylbenzylidene)-5-norbornene-2,3-dicarboximide] | yes^h,i | 21% | – | In vivo lethality (oral) ([1]; 20 mg/Kg): yes^h,i; Vasoconstriction: maximum contractile effect as a % of 90 mM KCl contraction ([2]; Table 2, compound at 50 μM): 21%
O=C(C=Cc1ccccc1)NCCN1C(=O)C2C3C=C(C(O)(c4ccccc4)c4ccccn4)C(C3=C(c3ccccc3)c3ccccn3)C2C1=O (stereo not drawn) [Compound 365, N-2′-Cinnamamidoethyl-5-(α-hydroxy-α-2-pyridylbenzyl)-7-(α-2-pyridylbenzylidene)-5-norbornene-2,3-dicarboximide] | – | – | – | Vasoconstriction: maximum contractile effect as a % of 90 mM KCl contraction ([2]; Table 2, compound at 50 μM): 43%
CCCCCCCCOC(=O)CN1C(=O)C2C3C=C(C(O)(c4ccccc4)c4ccccn4)C(C3=C(c3ccccc3)c3ccccn3)C2C1=O (stereo not drawn) [Compound 369, 5-(α-Hydroxy-α-2-pyridylbenzyl)-N-octyloxycarbonylmethyl-7-(α-2-pyridylbenzylidene)-5-norbornene-2,3-dicarboximide] | no^h | 0% | – | Emax [2, 4]: 0%
O=C(CN1C(=O)C2C3C=C(C(O)(c4ccccc4)c4ccccn4)C(C3=C(c3ccccc3)c3ccccn3)C2C1=O)OCC=Cc1ccccc1 (stereo not drawn) [Compound 371, N-Cinnamoxycarbonylmethyl-5-(α-hydroxy-α-2-pyridylbenzyl)-7-(α-2-pyridylbenzylidene)-5-norbornene-2,3-dicarboximide] | no^h | 0% | – | Emax [2, 4]: 0%
